# Laboratory results reported in patent US20030083338A1, “Compositions and methods for management of serotonin-mediated disorders” (priority 2001, published 2003).
# Columns and labels:
# [1] = biological target: α1 Receptor; assay: α1 receptor binding; conditions: read-out: α1 Receptor Binding IC50, Alpha1
# [2] = test system: norepinephrine uptake; assay: Norepinephrine uptake functional assay (rat hypothalamus synaptosomes); format: biochemical; conditions: read-out: Monoamine Neuronal Transport IC50, NE uptake
# Description: Characterization of norepinephrine uptake is performed using synaptosomes isolated at Cerep in a 0.32 M sucrose buffer from a male Wistar rat hypothalamus. The uptake of radiolabeled norepinephrine by synaptosomes (100 μg of proteins/point) is allowed by incubating them for 20 minutes at 37° C. in presence of test compounds and [3H]-norepinephrine (0.1 μCi/point). The experiment is performed in a deep well.
# Synaptosomes and [3H]-norepinephrine are prepared in a Krebs buffer pH 7.4 containing 25 mM NaHCO3, 11 mM glucose and 50 μM ascorbic acid. This incubation buffer is oxygenated during 5 minutes before incubation. Basal control is incubated for 20 minutes at 4° C. in order to avoid any uptake. Following this incubation the uptake is stopped by filtration through an “unifilter 96-wells GFB” Packard plate washed with Krebs buffer containing 25 mM NaHCO3 in order to eliminate the free [3H]-norepinephrine. The radioactivity associated to the synaptosomes retained onto the unifilter corresponding to the uptake is then measured with a microplate scintillation counter Topcount, Packard using a scintillation liquid microscint 0, Packard.
# [See Perovics and Müller, op.cit. (1995).]
# [3] = test system: serotonin uptake; assay: Serotonin uptake functional assay (rat cortex synaptosomes); format: biochemical; conditions: for IC50: rat cortex synaptosomes, read-out: Monoamine Neuronal Transport IC50, 5-HT Uptake
# Description: Characterization of serotonin uptake is performed using synaptosomes isolated in a 0.32 M sucrose buffer from a male Wistar rat cortex. The uptake of radiolabelled serotonin by synaptosomes (100 μg of proteins/point) is allowed by incubating them for 15 minutes at 37° C. in presence of test compounds and [3H]5-hydroxytryptamin (0.1 μCi/point). The experiment is performed in a deep well.
# Synaptosomes and [3H]5-hydroxytryptamin are prepared in a Krebs buffer pH 7.4 containing 25 mM NaHCO3, 11 mM glucose and 50 μM ascorbic acid. This incubation buffer is oxygenated during 5 minutes before incubation. Basal control is incubated for 15 minutes at 4° C. in order to avoid any uptake. Following this incubation the uptake is stopped by filtration through an “unifilter 96-wells GFB” Packard plate washed with Krebs buffer containing 25 mM NaHCO3 in order to eliminate the free [3H]5-hydroxytrptamin. The radioactivity associated to the synaptosomes retained onto the unifilter corresponding to the uptake is then measured with a microplate scintillation counter Topcount, Packard using a scintillation liquid microscint 0, Packard.
# [See Perovics and Müller “Pharmacological profile of hypericum extract: effect on serotonin uptake by postsynaptic receptors”, Arzeim.
# [4] = biological target: CYP3A4 (Homo sapiens, UniProt P08684); assay: CYP450 inhibition, CYP3A4 BZRes; format: in vitro ADME; conditions: parameter and unit inferred
# [5] = biological target: T1, CYP1A2 (Homo sapiens, UniProt P05177); assay: CYP450 inhibition, CYP1A2; format: in vitro ADME; conditions: parameter and unit inferred
# T1 sequence (P05177 1-516): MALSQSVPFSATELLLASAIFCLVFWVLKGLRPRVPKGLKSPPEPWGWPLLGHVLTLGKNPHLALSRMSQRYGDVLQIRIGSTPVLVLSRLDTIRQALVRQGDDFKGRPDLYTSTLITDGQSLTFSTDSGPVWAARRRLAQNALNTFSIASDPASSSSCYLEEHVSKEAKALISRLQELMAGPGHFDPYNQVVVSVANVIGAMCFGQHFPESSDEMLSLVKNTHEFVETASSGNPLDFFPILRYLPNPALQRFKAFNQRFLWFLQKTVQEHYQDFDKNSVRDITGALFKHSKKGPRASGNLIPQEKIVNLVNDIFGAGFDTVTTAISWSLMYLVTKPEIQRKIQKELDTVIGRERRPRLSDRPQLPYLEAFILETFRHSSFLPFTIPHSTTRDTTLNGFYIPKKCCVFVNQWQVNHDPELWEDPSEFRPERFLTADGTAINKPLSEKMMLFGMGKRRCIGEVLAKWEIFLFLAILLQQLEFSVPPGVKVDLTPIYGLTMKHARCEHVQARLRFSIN
# [6] = biological target: T2, Human 5-HT2A Receptor (Homo sapiens, UniProt P28223); assay: Human 5-HT2A receptor binding ([3H]ketanserin); conditions: comment on Table 2
# T2 construct: expressed in transfected cells; host or cells: CHO cells
# Description: (§1) Dopamine and serotonin receptor binding assays were performed in a standard manner with the incubation of membrane preparations in an assay buffer in the presence of a known radioactively labeled specific ligand for the receptor subtypes. Nonspecific binding was determined by assessing binding in the presence of excess ligand. Specific binding was measured as the total labeled ligand bound after the nonspecific binding was subtracted. The effect of the tested agents was measured by determining the competition for the receptor binding across a concentration range. Subsequently, an IC50 was determined for the agents tested. More specific details are provided below for several of the assays performed.
# Nonspecific binding is determined in the presence of 1 μM ketanserin. […] Bound radioactivity is measured with a scintillation counter (Topcount, Packard) using a liquid scintillation cocktail (Microscint 0, Packard). The reference compound for this assay is ketanserin.
# [7] = biological target: T3, Human D2 Receptor (Homo sapiens, UniProt P14416); assay: Human D2 receptor binding ([3H]spiperone); conditions: comment on Table 1
# T3 construct: expressed in transfected cells; host or cells: A9L cells
# Description: as §1
# Aliquots of transfected A9L cell membrane preparations corresponding to 20-40 μg protein are incubated for 60 min at 22° C. in 250 μL of 50 mM Tris-HCl buffer (pH 7.4) containing 120 mM NaCl, 5 mM KCl, 5 mM MgCl2, 1 mM EDTA, 0.3 nM [^3H]spiperone and increasing concentrations of the competing drugs. Nonspecific binding is determined in the presence of 10 μM (+)butaclamol. […] Bound radioactivity is measured with a scintillation counter (Topcount, Packard) using a liquid-scintillation cocktail (Microscint 0, Packard). […]
# [8] = biological target: CYP2C19 (Homo sapiens, UniProt P33261); assay: CYP450 inhibition, CYP2C19; format: in vitro ADME; conditions: parameter and unit inferred
# [9] = immediate-release tablets; first-pass metabolism; cited from earlier work
# T3 sequence (P14416 whole entry): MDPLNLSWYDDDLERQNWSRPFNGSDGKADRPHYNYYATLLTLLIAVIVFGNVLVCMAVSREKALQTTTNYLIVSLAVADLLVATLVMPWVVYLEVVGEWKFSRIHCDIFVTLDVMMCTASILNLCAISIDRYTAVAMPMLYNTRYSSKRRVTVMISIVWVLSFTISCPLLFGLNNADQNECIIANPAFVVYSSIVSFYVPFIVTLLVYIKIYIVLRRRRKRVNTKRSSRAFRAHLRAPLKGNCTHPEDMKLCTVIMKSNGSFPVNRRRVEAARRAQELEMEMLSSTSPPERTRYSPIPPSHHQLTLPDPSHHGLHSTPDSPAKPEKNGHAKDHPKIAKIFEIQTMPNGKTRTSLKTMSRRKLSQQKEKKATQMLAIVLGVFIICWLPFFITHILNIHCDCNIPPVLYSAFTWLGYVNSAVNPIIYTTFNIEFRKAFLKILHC
# T2 sequence (P28223 whole entry): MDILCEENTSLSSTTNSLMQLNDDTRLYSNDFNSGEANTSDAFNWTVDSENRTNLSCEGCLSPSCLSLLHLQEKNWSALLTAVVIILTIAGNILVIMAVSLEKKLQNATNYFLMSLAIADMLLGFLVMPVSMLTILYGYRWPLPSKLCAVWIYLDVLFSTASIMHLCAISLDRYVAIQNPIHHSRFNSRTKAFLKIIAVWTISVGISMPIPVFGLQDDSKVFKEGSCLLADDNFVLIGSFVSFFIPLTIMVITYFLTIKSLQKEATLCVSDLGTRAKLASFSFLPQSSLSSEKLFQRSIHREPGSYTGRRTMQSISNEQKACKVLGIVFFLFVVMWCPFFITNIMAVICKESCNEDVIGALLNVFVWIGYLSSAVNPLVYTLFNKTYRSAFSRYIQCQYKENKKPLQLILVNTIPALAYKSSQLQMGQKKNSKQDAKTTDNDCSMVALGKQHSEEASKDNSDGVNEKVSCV
# Chain of CYP2C19 (P33261 whole entry): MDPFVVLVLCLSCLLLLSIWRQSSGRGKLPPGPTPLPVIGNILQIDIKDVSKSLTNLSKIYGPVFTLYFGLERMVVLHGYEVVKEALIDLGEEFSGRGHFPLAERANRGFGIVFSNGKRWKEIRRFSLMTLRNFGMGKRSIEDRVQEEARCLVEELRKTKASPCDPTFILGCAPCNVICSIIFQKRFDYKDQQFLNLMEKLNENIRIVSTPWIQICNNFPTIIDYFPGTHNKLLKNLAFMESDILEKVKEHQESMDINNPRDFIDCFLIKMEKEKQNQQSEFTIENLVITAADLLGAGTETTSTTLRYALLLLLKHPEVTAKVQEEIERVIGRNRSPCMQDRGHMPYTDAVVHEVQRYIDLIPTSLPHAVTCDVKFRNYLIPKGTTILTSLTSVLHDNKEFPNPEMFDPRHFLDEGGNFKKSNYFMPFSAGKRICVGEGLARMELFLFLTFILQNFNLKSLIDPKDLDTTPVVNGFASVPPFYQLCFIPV
# Chain of CYP3A4 (P08684 whole entry): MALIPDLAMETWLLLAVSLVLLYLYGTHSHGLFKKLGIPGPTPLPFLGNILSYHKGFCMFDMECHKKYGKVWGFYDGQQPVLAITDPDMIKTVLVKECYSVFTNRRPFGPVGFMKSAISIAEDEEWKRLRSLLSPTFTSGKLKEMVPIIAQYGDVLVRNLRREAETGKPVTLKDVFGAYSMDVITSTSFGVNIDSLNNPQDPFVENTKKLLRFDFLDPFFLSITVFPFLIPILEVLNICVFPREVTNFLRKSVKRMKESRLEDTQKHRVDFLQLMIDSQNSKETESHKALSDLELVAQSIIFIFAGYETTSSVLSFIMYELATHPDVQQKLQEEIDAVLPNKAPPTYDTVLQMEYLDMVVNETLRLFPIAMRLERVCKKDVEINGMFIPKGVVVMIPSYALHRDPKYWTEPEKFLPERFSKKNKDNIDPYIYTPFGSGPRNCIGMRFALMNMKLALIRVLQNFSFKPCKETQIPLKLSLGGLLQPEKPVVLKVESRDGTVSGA
SMILES,IC50 [1] [nM],IC50 [2] [nM],IC50 [3] [nM],IC50 [4] [µM],IC50 [5] [µM],Affinity for 5HT2A receptors (in words) [6],Affinity for the D2 receptor (in words) [7],Activity in inhibiting serotonin uptake (in words) ([3]; comment on Table 4),IC50 [8] [µM],Bioavailability [9]
"CC(O)c1nn(CCCN2CCN(c3cccc(Cl)c3)CC2)c(=O)n1CCOc1ccccc1 (racemic) [(RS)—OH, hydroxynefazodone]",381,1000,500,,,,,,,
"C[C@@H](O)c1nn(CCCN2CCN(c3cccc(Cl)c3)CC2)c(=O)n1CCOc1ccccc1 [(R)—OH, (R)-Hydroxynefazodone]",367,1200,640,> 200,> 200,,,,,
C[C@H](O)c1nn(CCCN2CCN(c3cccc(Cl)c3)CC2)c(=O)n1CCOc1ccccc1 [(S)—OH],419,,790,,> 200,highest affinity,excellent affinity,least active enantiomer,> 200,
"CCc1nn(CCCN2CCN(c3cccc(Cl)c3)CC2)c(=O)n1CCOc1ccccc1 [Nefazodone, 2-[3-[4-(3-chlorophenyl)-1-piperazinyl]-propyl-]5-ethyl-2,4-dihydro-4-(2-phenoxy-ethyl)-3H-1,2,4-triazol-3-one, reference compound]",306,1200,200,,> 200,,,,,approximately 20%
